Results as given in patent US20030068615A1, “Polypeptides that bind HIV gp120 and related nucleic acids, antibodies, compositions, and methods of use” (priority 1999, published 2003).
Where “and” joins values, the source holds several entries; their conditions need not be identical. Equal entries are not always repeated. Where two headings read alike, the source gives them in different places.

Target: HIV-1LAI envelope gp120 (Human immunodeficiency virus type 1 group M subtype B, UniProt P03377)
Assay type: binding
Conditions: for Counts per 20′ Average-background: CCR5 18-mer scan, radiolabeled HIV-1LAI gp120; for number of radioactive decays (counts) counted: human CD4 21-mer scan, empty control 2075
[1] = Panel E, 9-mers and 12-mers of CD4, empty control 571
[2] = Panel D, 9-mers and 12-mers of CD4, empty control […]
[3] = STRL33 18-mer scan, background subtracted, first of two count columns
[4] = STRL33 18-mer scan, background subtracted, second of two count columns
[5] = Panel A, 21-mers of CD4, empty control 515 and 617
[6] = Panel G, alanine replacements and serial truncations (Z) of CD4 polypeptides, empty control 580
[7] = CXCR4 18-mer scan, background subtracted, empty control 0
[8] = CXCR4 18-mer scan, empty control 412
[9] = Panel C, 15-mers and 18-mers of CD4, empty control 556

## VYKKEGEQVEFS
[1]
  COUNTS of radiolabeled gp120 retained: 584 counts

## GLNNCSSSNRLDQAMQVT [CCR5 segment 265-]
Background subtracted
  Counts per 20′ Average-background: −31 counts per 20′

## DTHLLQGQSLTL
[2]
  COUNTS of radiolabeled gp120 retained: 527 counts

## LKIEDSDTYICEVEDQKE
Panel B, 15-mers and 18-mers of CD4, empty control 575
  COUNTS of radiolabeled gp120 retained: 872 counts

## LLGIYTINFYTSMLILTC
[3]
  radioactive counts recorded in twenty minutes: 499.5 counts
[4]
  radioactive counts recorded in twenty minutes: 408.5 counts

## FQKASSIVYKKEGEQVEFSFP
[5]
  COUNTS of radiolabeled gp120 retained: 9382 counts

## THLLQGQSL
[2]
  COUNTS of radiolabeled gp120 retained: 512 counts

## AGLLLFIGLGIFFCVRCRHRR
  number of radioactive decays (counts) counted: 2099 counts

## QKINVKQIAARLLPPLYS [CCR5 segment 21-38]
Background subtracted
  Counts per 20′ Average-background: 20 counts per 20′

## DQGNFPLIIKNL
[2]
  COUNTS of radiolabeled gp120 retained: 604 counts

## TCSSHFPYSQYQFWKNFQ [CCR5 segment 177-]
Background subtracted
  Counts per 20′ Average-background: 367 counts per 20′

## GEQVEFAFPLAFTVE
[6]
  COUNTS of radiolabeled gp120 retained: 21681 counts and 20072 counts

## LAFQKASSIVYK
[1]
  COUNTS of radiolabeled gp120 retained: 465 counts

## GVVTSVITWVVAVFASLP
Background subtracted
  Counts per 20′ Average-background: 69 counts per 20′

## EEVQLLVFGATANSD
Panel F, sequential alanine replacements of CD4 polypeptides, duplicate series, empty control 569
  COUNTS of radiolabeled gp120 retained: 19978 counts and 10408 counts

## AVVHAVFALKARTVTFGV
Background subtracted
  Counts per 20′ Average-background: 34 counts per 20′

## LGAKFKTSAQHALTSVSR
[7]
  radioactive counts recorded in twenty minutes: 200 counts
[8]
  radioactive counts recorded in twenty minutes: 612 counts

## GEQVEFSFPLAFTVEKLT
[9]
  COUNTS of radiolabeled gp120 retained: 1643 counts

## EGEQVEFSFPLAFTVEKL
[9]
  COUNTS of radiolabeled gp120 retained: 2164 counts

## LAFQKASSIVYKKEGEQV
[9]
  COUNTS of radiolabeled gp120 retained: 665 counts

## KEEVQLLVFGLT
[2]
  COUNTS of radiolabeled gp120 retained: 1774 counts

## DIGCLPYLGVSHQWKSSE
[3]
  radioactive counts recorded in twenty minutes: 17.5 counts
[4]
  radioactive counts recorded in twenty minutes: 78.5 counts

## LVSLPQIIYGNVFNLDKL
[3]
  radioactive counts recorded in twenty minutes: 91.5 counts
[4]
  radioactive counts recorded in twenty minutes: −15.5 counts

## DYGFSSFNDSSQEEHQAF [STRL33 segment 9-26]
[3]
  radioactive counts recorded in twenty minutes: 8579.5 counts
[4]
  radioactive counts recorded in twenty minutes: 8909.5 counts
STRL33 amino terminus, 9-mer starting at the first residue of the printed sequence, background subtracted
  Binding Results For Window Length (counts bound-background), 9: 701 counts
STRL33 amino terminus, 12-mer starting at the first residue of the printed sequence, background subtracted
  Binding Results For Window Length (counts bound-background), 12: 573 counts
STRL33 amino terminus, 15-mer starting at the first residue of the printed sequence, background subtracted
  Binding Results For Window Length (counts bound-background), 15: 595 counts
STRL33 amino terminus, 18-mer starting at the first residue of the printed sequence, background subtracted
  Binding Results For Window Length (counts bound-background), 18: 440 counts

## KAVWVLNPEAGMWQCLLSDSG [human CD4 356-376]
  number of radioactive decays (counts) counted: 3133 counts

## CTVLQNQKKVEFKID
[9]
  COUNTS of radiolabeled gp120 retained: 608 counts

## GEQVEFSFALAFTVE
[6]
  COUNTS of radiolabeled gp120 retained: 20480 counts and 19480 counts

## TDIYLLNLAISDLFFLLT [CCR5 segment 65-82]
Background subtracted
  Counts per 20′ Average-background: 38 counts per 20′

## KRLLSEKKTCQCPERFQKTCS [human CD4 436-456]
  number of radioactive decays (counts) counted: 1674 counts

## GNFPLIIKN
[2]
  COUNTS of radiolabeled gp120 retained: 600 counts

## QLLVFGLTANSD
[2]
  COUNTS of radiolabeled gp120 retained: 721 counts

## ALAFFHCCLNPILYAFLG [CXCR4 segment 289-306]
[7]
  radioactive counts recorded in twenty minutes: 181 counts
[8]
  radioactive counts recorded in twenty minutes: 593 counts

## AFQKASSIVYKK
[1]
  COUNTS of radiolabeled gp120 retained: 597 counts

## FTVEKLTGSGELWWQAER
[9]
  COUNTS of radiolabeled gp120 retained: 1143 counts

## VLQNQKKVEFKIDIVVLA
[9]
  COUNTS of radiolabeled gp120 retained: 724 counts

## EQVEFSFPLAFTVEKLTG
[9]
  COUNTS of radiolabeled gp120 retained: 798 counts

## YICEVEDQK
[2]
  COUNTS of radiolabeled gp120 retained: 728 counts

## GLHYTCSSEFPYSQYQFW
Background subtracted
  Counts per 20′ Average-background: 301 counts per 20′

## VIIKTLLHAGGFQKERSL
[3]
  radioactive counts recorded in twenty minutes: 961.5 counts
[4]
  radioactive counts recorded in twenty minutes: 682.5 counts

## IVGNGLVILVMGYQKKLR [CXCR4 segment 53-70]
[7]
  radioactive counts recorded in twenty minutes: 238 counts
[8]
  radioactive counts recorded in twenty minutes: 650 counts

## SEPCQKINVKQIAARLLP [CCR5 segment 17-34]
Background subtracted
  Counts per 20′ Average-background: −44 counts per 20′

## IDIVVLAFQKASSIVYKKEGE
[5]
  COUNTS of radiolabeled gp120 retained: 962 counts

## MDYQVSSPIYDIAYYTSE
CCR5 (1-18) alanine variants, mean of two syntheses and binding experiments ± average deviation, wild-type = 100%
  Relative % of Control: 253 ± 19%

## FQKASSIVYKKEGEQVEF
[9]
  COUNTS of radiolabeled gp120 retained: 528 counts

## GEQVEFSFPLAFAVE
[6]
  COUNTS of radiolabeled gp120 retained: 20627 counts and 19516 counts

## LTCEVWGPTSPKLMLSLKLEN
  number of radioactive decays (counts) counted: 2412 counts

## WGPTSPKLMLSLKLENKEAKV [human CD4 331-351]
  number of radioactive decays (counts) counted: 2414 counts

## RMSQIKRLLSEKKTCQCPHRF
  number of radioactive decays (counts) counted: 2020 counts
